Reference: patent publication US20220387457A1 (Qlaris Bio, Inc., priority 2020, published 2022)
“Also recorded” adds a separate entry of the source. Where two headings read alike, the source gives them in different places.

Experiments:
[1] = Concentration of CKLP1 and levcromakalim in ocular and systemic tissues of hound dogs; assay type: in vivo, hound dog; details: for concentration at 23 h: hound, dog
Protocol: After blood collection for pharmacokinetic studies, bilateral ocular treatment with CKLP1 (10 mM) continued in the hound dogs for 4-5 additional days.
For ocular tissue collection, eyes were enucleated and aqueous humor, vitreous humor, trabecular meshwork, optic nerve, ciliary body, iris, retina and cornea were isolated and stored at −80° C. While collecting tissues during necropsy, portions of heart, kidney, lung, brain, liver and skeletal muscle were immediately frozen for pharmacodynamics analysis, while the remaining tissue samples were immediately fixed in 10% neutral buffered formalin.
Immediately prior to analysis, tissues were thawed and their weight was measured. PBS was added at double the tissue volume homogenized in a rotor stator homogenizer for 30 seconds. […] Detection was accomplished using positive electrospray ionization with multiple-reaction monitoring (MRM). […] Data were acquired and analyzed using Waters MassLynx v4.1 software.

[2] = molecular target: T1, human Kir6.2/SUR2B KATP channel (Homo sapiens, UniProt O60706); assay: FLIPR membrane potential assay in HEK-Kir6.2/SUR2B cells; assay type: cell-based; details: for hyperpolarization / activation of Kir6.2/SUR2B KATP channels: up to 100 μM
T1 construct: expressed in transfected cells
Protocol: The ability of CKLP1 and the active moiety of CKLP1, leveromakalim, to pharmacologically modulate the function of the human ATP-sensitive potassium channel comprised of Kir6.2 (encoded by the human gene KCNJ11) coupled to the sulfonylurea receptor SUR2B (encoded by the human gene ABCC9) was studied.
Compounds were dissolved up to 10 mM stock solution in DMSO. Ten-point concentration response curves were generated at 100× concentration in 100% DMSO. Compound source plates were made by serially diluting 10 mM compound stocks in DMSO to generate a progressive semilog dilution schema. Dose response stock plate (10 μL) were then transferred into assay plates containing 90 μL of assay buffer, generating 10× working concentrations. Final assay test concentration ranges of 100 μM to 0.003 μM with a final DMSO concentration of 1.0%.
Human embryonic kidney (HEK) cells stably expressing human Kir6.2/SUR2B KATP channel subunits were plated onto 96 well, black poly-d-lysine (PDL)-coated microplates and maintained in growth media the day prior to use for experiments. Media was removed from the plates and 90 μL of 1× stock of the membrane potential sensitive fluorescent dye FMP-Blue resuspended in assay buffer (EBSS—in mM: NaCl 145, KCl 2, Glucose 5, CaCl2) 1.8, MgCl2 0.8, HEPES 10, pH 7.4 with NaOH, 290-300 mOSm) was added to the cells. Cells were incubated at room temperature, protected from light, for 45-60 minutes. After the incubation period, cell, test compound and glibenclamide plates were loaded onto the fluorescence plate reader (FLIPR-TETRA™) and the scanning initiated. The FLIPR measured a 10 second baseline and then added 10 μL of 10× the final desired concentration of test agent. Changes in fluorescence were monitored for an additional 5 minutes. After the 5-minute compound incubation, 10 μL of the receptor inhibitor glibenclamide was added to the cell plate (10 uM final glibenclamide concentration). Changes in fluorescence was then monitored for an additional 5 minutes.
Compound modulation of Kir6.2/SUR2B KATP channel mediated changes in cellular membrane potential was determined as follows. After the administration of compound, FMP fluorescence was monitored for a 5-minute period. The following parameters were recorded and exported from the FLIPR: the average relative fluorescence response (RFU) of 5 images taken at the 5-minute point in the assay with the average background EBSS buffer response subtracted. […] Test agent effect was calculated as % activation using the following formula: […]
Curve fits were performed in GraphPad Prism graphing software using a 4-parameter, variable slope fit equation.

[3] = aqueous humor, 23 hours after last dose, topical 10 mM CKLP1 12-13 days, two animals, read-out: concentration in aqueous humor
[4] = ciliary body, 23 hours after last dose, topical 10 mM CKLP1 12-13 days, two animals, read-out: concentration in ciliary body
[5] = cornea, 23 hours after last dose, topical 10 mM CKLP1 12-13 days, two animals, read-out: concentration in cornea
[6] = heart, 23 hours after last dose, topical 10 mM CKLP1 12-13 days, read-out: concentration in heart
[7] = iris, 23 hours after last dose, topical 10 mM CKLP1 12-13 days, two animals, read-out: concentration in iris
[8] = kidney, 23 hours after last dose, topical 10 mM CKLP1 12-13 days, read-out: concentration in kidney
[9] = optic nerve, 23 hours after last dose, topical 10 mM CKLP1 once daily 12-13 days, two animals, read-out: concentration in optic nerve
[10] = retina, 23 hours after last dose, topical 10 mM CKLP1 12-13 days, two animals, read-out: concentration in retina
[11] = trabecular meshwork, 23 hours after last dose, topical 10 mM CKLP1 12-13 days, two animals, read-out: concentration in trabecular meshwork
[12] = vitreous humor, 23 hours after last dose, topical 10 mM CKLP1 12-13 days, two animals, read-out: concentration in vitreous humor

T1 sequence (O60706 1-1549 isoform O60706-2): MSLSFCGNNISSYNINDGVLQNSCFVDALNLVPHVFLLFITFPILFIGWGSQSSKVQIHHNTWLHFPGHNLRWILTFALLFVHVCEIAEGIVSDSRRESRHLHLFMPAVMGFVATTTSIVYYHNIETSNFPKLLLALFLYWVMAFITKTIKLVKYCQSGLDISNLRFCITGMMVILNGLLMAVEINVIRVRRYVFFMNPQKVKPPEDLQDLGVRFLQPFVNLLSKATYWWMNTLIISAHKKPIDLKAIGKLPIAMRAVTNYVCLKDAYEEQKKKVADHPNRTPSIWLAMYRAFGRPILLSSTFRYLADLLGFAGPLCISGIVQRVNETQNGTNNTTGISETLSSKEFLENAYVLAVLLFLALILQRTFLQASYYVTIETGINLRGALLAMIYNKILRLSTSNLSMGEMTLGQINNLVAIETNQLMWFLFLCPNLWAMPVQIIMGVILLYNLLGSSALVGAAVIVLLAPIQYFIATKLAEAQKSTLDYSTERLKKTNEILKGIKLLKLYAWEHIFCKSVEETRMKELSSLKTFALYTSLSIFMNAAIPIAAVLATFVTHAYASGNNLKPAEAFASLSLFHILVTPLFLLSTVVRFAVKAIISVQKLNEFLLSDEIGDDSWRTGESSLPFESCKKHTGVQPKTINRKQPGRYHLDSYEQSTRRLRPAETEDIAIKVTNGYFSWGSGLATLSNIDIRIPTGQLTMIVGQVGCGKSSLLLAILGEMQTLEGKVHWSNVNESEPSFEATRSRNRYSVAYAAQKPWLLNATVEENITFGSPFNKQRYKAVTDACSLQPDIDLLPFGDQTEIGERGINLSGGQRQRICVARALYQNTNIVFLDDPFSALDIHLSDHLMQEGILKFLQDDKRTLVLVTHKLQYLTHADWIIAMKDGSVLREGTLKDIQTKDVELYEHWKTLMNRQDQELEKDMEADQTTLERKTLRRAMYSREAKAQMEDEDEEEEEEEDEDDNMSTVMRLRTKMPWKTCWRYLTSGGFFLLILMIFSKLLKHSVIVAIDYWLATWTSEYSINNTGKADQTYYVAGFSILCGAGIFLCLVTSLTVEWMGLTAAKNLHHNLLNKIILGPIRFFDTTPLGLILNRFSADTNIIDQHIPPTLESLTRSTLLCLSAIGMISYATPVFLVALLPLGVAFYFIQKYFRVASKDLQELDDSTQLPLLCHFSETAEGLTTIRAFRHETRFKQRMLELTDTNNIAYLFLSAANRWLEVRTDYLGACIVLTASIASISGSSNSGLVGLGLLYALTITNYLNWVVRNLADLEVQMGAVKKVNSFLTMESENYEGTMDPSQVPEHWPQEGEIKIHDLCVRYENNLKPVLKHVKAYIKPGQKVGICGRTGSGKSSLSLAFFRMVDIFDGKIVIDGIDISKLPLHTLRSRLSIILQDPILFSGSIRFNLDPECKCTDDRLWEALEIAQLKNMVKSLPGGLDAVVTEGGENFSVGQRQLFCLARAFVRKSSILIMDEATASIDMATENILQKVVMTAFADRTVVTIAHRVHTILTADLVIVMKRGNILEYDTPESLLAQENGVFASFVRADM
T1 sequence (Q14654 whole entry partner): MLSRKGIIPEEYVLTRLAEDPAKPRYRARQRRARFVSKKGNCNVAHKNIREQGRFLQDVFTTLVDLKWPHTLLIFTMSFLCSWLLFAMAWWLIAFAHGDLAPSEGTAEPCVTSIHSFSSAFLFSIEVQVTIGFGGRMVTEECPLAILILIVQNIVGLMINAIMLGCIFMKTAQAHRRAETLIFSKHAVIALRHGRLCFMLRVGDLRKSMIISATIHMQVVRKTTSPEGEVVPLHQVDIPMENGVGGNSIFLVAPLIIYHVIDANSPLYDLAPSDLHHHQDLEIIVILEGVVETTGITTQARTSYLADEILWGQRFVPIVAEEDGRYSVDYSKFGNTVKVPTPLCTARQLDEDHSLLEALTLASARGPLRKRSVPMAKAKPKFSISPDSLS

Row | SMILES | concentration at 23 h [1, 3] | concentration at 23 h [1, 4] | concentration at 23 h [1, 5] | concentration at 23 h [1, 6] | concentration at 23 h [1, 7] | concentration at 23 h [1, 8] | concentration at 23 h ([1]; lung, 23 hours after last dose, topical 10 mM CKLP1 12-13 days, read-out: concentration in lung) | concentration at 23 h [1, 9] | concentration at 23 h [1, 10] | concentration at 23 h [1, 11] | concentration at 23 h [1, 12] | concentration in urine ([1]; topical 10 mM CKLP1 12-13 days) | hyperpolarization reversed by coadministration of glibenclamide ([2]; glibenclamide 10 μM) | hyperpolarization / activation of Kir6.2/SUR2B KATP channels [2] | concentration in lung ([1]; 23 hours after last dose, topical 10 mM CKLP1 12-13 days) | EC50 ([2]; ability to modulate KATP channel, HEK-Kir6.2/SUR2B cells, normalized to 100 uM pinacidil, read-out: EC50 (μM) (mean ± SEM)) | Emax at 100 µM ([2]; read-out: maximal response, % activation)
1 | CC1(C)Oc2ccc(C#N)cc2[C@@H](N2CCCC2=O)[C@@H]1O [Levcromakalim, levcromakalim, reference compound] | 1.1 ± 1.5 ng/mL | < 1 ng/g | 1.4 ± 0.3 ng/g | 0.9 ± 0.8 ng/g | < 1 ng/g | 0.8 ± 1.2 ng/g | 0.3 ± 0.4 ng/g | < 1 ng/g | < 1 ng/g | 2 ± 0.5 ng/g | < 1 ng/g | 3.7 ± 4.5 ng/mL | reversed | concentration-dependent hyperpolarization |  |  | 
2 | CC1(C)Oc2ccc(C#N)cc2[C@@H](N2CCCC2=O)[C@@H]1OP(=O)(O)O [CKLP1] | 10.2 ± 14.4 ng/g | 10.3 ± 8.1 ng/g | 31.3 ± 10.8 ng/g | 3.7 ± 0.5 ng/g | 4.8 ± 1.1 ng/g | 2.7 ± 2.9 ng/g |  | 63.8 ± 63.1 ng/g | 6.2 ± 3.8 ng/g | 170 ± 21.6 ng/g | 24.4 ± 2.4 ng/g | 88.0 ± 134.9 ng/mL |  | did not result in any significant hyperpolarization; also recorded: failed to produce any significant activation | undetected | > 100 µM | 9.4%
